Experiment [1] deals with Burkholderia A396. It is filed as cell-based, Burkholderia sp. A396. Particulars: for Susceptible: Muller-Hinton medium, 72-hour incubation at 25° C.; for Susceptibility of Burkholderia A396 (in words): Table 2. As for the experimental part: Antibiotic susceptibility of Burkholderia A396 is tested using antibiotic disks on Muller-Hinton medium as described in PML Microbiological's technical data sheet #535.

The subject of experiment [2] is recombinant glutamine synthetase from Lotus japonicas. The experiment in a line: Biosynthetic assay for plant glutamine synthetase. It is filed as biochemical. Particulars: for effect on plant glutamate synthetase activity (in words): text summary of Table 5, 40 μg/ml. The method, then: The biosynthetic assay for plant glutamine synthetase was carried out as follows. This assay uses following solutions: reaction buffer (pH 6.8, 75 mM HEPES, 300 mM L-glutamic acid, 11 mM NH4Cl, 40 mM MgCl2), recombinant […] GS from Lotus japonicas (Betti et al., 2006) working solution (pH 6.8, 50 mM ATP), reaction quenching and color formation solution (12% w/v L-ascorbic acid in 1 N HCl solution and 2% w/v sodium molybdate in DD H2O), color fixing solution (1% sodium citrate tribasic dehydrate in 1% acetic acid in DD H2O), and blank solution (420 mM EDTA solution).
Commercial herbicide (i.e., glufosinate or DL-Phosphinotricin) was used a positive control. EDTA was used as a negative control. In this experiment, we used the active ingredient(s) in the extracts from Burkholderia Spp. (internal labeled as A396 strain or MBI-206 and/or MBI-010).

The test system of experiment [3] is B. cepacia isolates. Particulars: 366 B. cepacia isolates, Pitt et al., 1996; cited from earlier work.
Experiment [4] has as its system B. cepacia complex strains isolated from cystic fibrosis patients. The settings on record: of 2,621 B. cepacia complex strains, Zhou et al., 2007; cited from earlier work.
The mark [5] stands for this setting: Table 5, pure compounds of MBI-206 and fractions, 40 μg/ml.

Where two headings read alike, the source gives them in different places.

Regarding `C[C@@H](O)[C@H]1C(=O)N2C(C(=O)O)=C(SCCN=CN)C[C@H]12` [Imipenem], the Susceptible result in experiment [1] (disk 10 ug) was “+++”.
In the case of templazole B [Templazole B (ii)], the “GS inhibition (%)” value in experiment [2] (setting [5]) came out at 46%. Further, in experiment [2], the “effect on plant glutamate synthetase activity (in words)” value was “inhibitory effect”.
In the same order, the values of `C/C=C1\NC(=O)[C@H]2CSSCC/C=C/[C@H](CC(=O)N[C@H](C(C)C)C(=O)N2)OC(=O)[C@H](C(C)C)NC1=O` [FR901228 (iii), FR901228] are 57% and “inhibitory effect”.
`CC[C@H]1OC(=O)[C@H](C)[C@@H](O[C@H]2C[C@@](C)(OC)[C@@H](O)[C@H](C)O2)[C@H](C)[C@@H](O[C@@H]2O[C@H](C)C[C@H](N(C)C)[C@H]2O)[C@](C)(O)C[C@@H](C)C(=O)[C@H](C)[C@@H](O)[C@]1(C)O` [Erythromycin]: the Susceptible entry in experiment [1] (disk 15 ug) is listed as “−”.
Take `O=C(O)c1cn(C2CC2)c2cc(N3CCNCC3)c(F)cc2c1=O` [Ciprofloxacin]: in experiment [3], the “antibiotic resistance of isolates (in words)” value is recorded as “most of them are resistant”. In experiment [4], the strains susceptible was 5%. Besides, the “Susceptibility of Burkholderia A396 (in words)” value (from here on “Susceptibility”) in experiment [1] is given as “susceptible”. Besides, the Susceptible result in experiment [1] (disk 5 ug) is “++”.
Regarding Gentamicin, the Susceptible entry in experiment [1] (disk 10 ug) is given as “−”.
As to Penicillin, the Susceptible result in experiment [1] (disk 10 ug) is given as “−”.
For `CN(C)[C@@H]1C(O)=C(C(N)=O)C(=O)[C@@]2(O)C(O)=C3C(=O)c4c(O)cccc4[C@@](C)(O)[C@H]3C[C@@H]12` [Tetracycline], the Susceptible entry in experiment [1] (disk 30 ug) is reported as “−”.
For `O=C(N[C@H](CO)[C@H](O)c1ccc([N+](=O)[O-])cc1)C(Cl)Cl` [Chloramphenicol], in experiment [4], the strains resistant was 85% and the strains susceptible was 15%. Also, the “Susceptibility” value in experiment [1] is on record as “susceptible”. In addition, the Susceptible result in experiment [1] (disk 30 ug) is on record as “++”.
As for `NC[C@H]1O[C@H](O[C@H]2[C@H](O)[C@@H](O[C@H]3O[C@H](CO)[C@@H](O)[C@H](N)[C@H]3O)[C@H](N)C[C@@H]2N)[C@H](O)[C@@H](O)[C@@H]1O` [Kanamycin], the Susceptible result in experiment [1] (disk 30 ug) is reported as “+++”.
For `CN(C)[C@@H]1C(O)=C(C(N)=O)C(=O)[C@@]2(O)C(O)=C3C(=O)c4c(O)cccc4[C@@](C)(O)[C@H]3[C@H](O)[C@@H]12` [Oxytetracycline], the Susceptible result in experiment [1] (disk 30 ug) is “−”.
For the compound `COC(=O)c1nc(CC(C)C)oc1-c1c[nH]c2ccccc12` [Templazole A (i), templazole A], in experiment [2] (setting [5]), the “GS inhibition (%)” value worked out at 30%. Also, the “effect on plant glutamate synthetase activity (in words)” value in experiment [2] is “inhibitory effect”.
For the compound `CP(=O)(O)CCC(N)C(=O)O` (racemic) [DL-Phosphinotricin], the “GS inhibition (%) Plate 1” value in experiment [2] (Study #2 (MBI-206), 100 μg/ml) is 68.8%. Further, in experiment [2] (Study #2 (MBI-206), 100 μg/ml), the “GS inhibition (%) Plate 2” value was determined as 71.5%. The “GS inhibition (%)” value in experiment [2] (Table 5, pure compounds of MBI-206 and fractions, 100 μg/ml) was 70.8%; in experiment [2] (study #1 (MBI-010), 200 μg/ml final concentration), 70%; in experiment [2] (study #1 (MBI-010), 200 μg/ml final concentration, listed as DL-phosphinotricin), “about 70%”.
`[H]/N=C(/N)N[C@H]1[C@H](O)[C@@H](O)[C@H](O[C@@H]2O[C@@H](C)[C@](O)(C=O)[C@H]2O[C@@H]2O[C@@H](CO)[C@H](O)[C@@H](O)[C@@H]2NC)[C@@H](N/C(N)=N\[H])[C@@H]1O` [Streptomycin]: the Susceptible entry in experiment [1] (disk 10 ug) is “−”.
Regarding `CO/N=C(\C(=O)N[C@@H]1C(=O)N2C(C(=O)O)=C(COC(N)=O)CS[C@H]12)c1ccco1` [Cefuroxime], the “antibiotic resistance of isolates (in words)” value in experiment [3] is “most of them are resistant”. Besides, the Susceptible entry in experiment [1] (disk 30 ug) is recorded as “−”.
Consider `CC1(C)S[C@@H]2[C@H](NC(=O)[C@H](N)c3ccccc3)C(=O)N2[C@H]1C(=O)O` [Ampicillin], for which the Susceptible entry in experiment [1] (disk 10 ug) is reported as “−”.
As to `CCN1CCN(C(=O)N[C@@H](C(=O)N[C@@H]2C(=O)N3[C@@H]2SC(C)(C)[C@@H]3C(=O)O)c2ccccc2)C(=O)C1=O` [Piperacillin], the “Susceptibility” value in experiment [1] was “susceptible”. Moreover, the Susceptible entry in experiment [1] (disk 100 ug) was “+++”.
